According to patent US9809623B2, “α4β7 peptide monomer and dimer antagonists” (Protagonist Therapeutics, Inc., priority 2014, dated 2017):
Numbered stars: 1 amine (or outer) side, 2 acyl side, 3 side chain; on linkers, the order of the positions; unused ones are H or OH. Bridge positions count the residues as written; N and C are the ends. Square brackets hold non-standard residues; d marks the D form. Peptide text beside a SMILES is read from it. I, II: the chains in the order shown. Phe(3,4-Cl2) = N[C@@H](Cc1ccc(Cl)c(Cl)c1)C(=O)O; Phe(2,4-Cl2) = N[C@@H](Cc1ccc(Cl)cc1Cl)C(=O)O; 1Nal = N[C@@H](Cc1cccc2ccccc12)C(=O)O; 2Nal = N[C@@H](Cc1ccc2ccccc2c1)C(=O)O; Diglycolyl = O=C(COCC(=O)[*:2])[*:1]; NMeR = CN[C@@H](CCCNC(=N)N)C(=O)O; hPhe = N[C@@H](CCc1ccccc1)C(=O)O; Tic = O=C(O)[C@@H]1Cc2ccccc2CN1; NMeK = CN[C@@H](CCCCN)C(=O)O; Pen = CC(C)(S)[C@H](N)C(=O)O; dNMeK = CN[C@H](CCCCN)C(=O)O

Tests used:
rh integrin α4β7 = target: T1, rh integrin α4β7 (Homo sapiens, UniProt P13612+P26010); assay: α4β7-MAdCAM Competition ELISA; type: binding; settings: Table 3-B, Potency (α4β7); range classes; read-out: α4β7 ELISA IC50
T1 construct: purchased R&D Systems 5397-A30
Method: A nickel coated plate (Pierce #15442) was coated with rh integrin α4β7 (R&D Systems #5397-A30) at 800 ng/well and incubated at room temperature with shaking for 1 hr. The solution was then removed by shaking and blocked with assay buffer (50 mM Tris-HCl pH7.6, 150 mM NaCl, 1 mM MnCl2 or MgCl2, 0.05% Tween-20 and 0.5% BSA) at 250 ul/well. The plate was then incubated at room temperature for 1 hr. Each well was washed 3 times with wash buffer (50 mM Tris-HCl pH7.6, 100 mM NaCl, 1 mM MnCl2 or MgCl2, 0.05% Tween-20). To each well was added 25 ul of a serial dilution (3-fold dilutions in assay buffer) of peptide starting at 20 μM. 25 ul of recombinant human MAdCAM-1 (R&D Systems #6056-MC) was then added to each well at a fixed concentration 20 nM. The final starting peptide concentration was 10 μM, and the final MAdCAM-1 concentration was 10 nM. The plates were then incubated at room temperature for 1 hr to reach binding equilibrium. The wells were then washed three times with wash buffer. 50 ul of mouse anti-human IgG1-HRP (Invitrogen # A10648) diluted in 1:2000 in assay buffer was then added to each well. The wells were incubated at room temperature for 45 min with shaking. The wells were then washed 3 times with wash buffer. 100 ul of 3,3′,5,5′-Tetramethylbenzidine (TMB) were then added to each well and closely observe during development time. The reaction was stopped with 2N H2SO4 and absorbance was read at 450 nm.
TMB is a chromogenic substrate suitable for use in ELISA procedures, which utilize horseradish peroxidase conjugates. This substrate produces a soluble end product that is blue in color and can be read spectrophotometrically at 370 or 655 nm. The reaction maybe stopped with 2 M H2S04, resulting in a yellow solution that is read at 450 nm. Each tablet contains 1 mg of TMB substrate. To prepare TMB Substrate Solution, dissolve one 3,3′,5,5′-tetramethylbenzidine tablet in 1 ml of DMSO and add to 9 ml of 0.05 M Phosphate-Citrate Buffer, pH 5.0. Add 2 μl of fresh 30% hydrogen peroxide (Product No. H 1009) per 10 ml of substrate buffer solution, immediately prior to use.

α4β7 = α4β7 (Homo sapiens, UniProt P13612+P26010); assay: α4β7-MAdCAM Cell Adhesion Assay (RPMI 8866 human cells); type: cell-based; set-up: host or cells: RPMI 8866 human B lymphoblastoid cells; settings: Table 3-B, Potency (α4β7); range classes; read-out: α4β7 cell (Hu) IC50
Summary of the method: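 Washed RPMI 8866 cells (200,000/well) in DMEM with 0.1% BSA, 10 mM HEPES pH 7, 1 mM MnCl2 adhered to rh MAdCAM-1/Fc-coated wells with serially diluted peptides, 30-45 min at 37 °C. After three washes, bound cells quantified by MTT, A570, cell-free background subtracted for dose response.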

T1 sequence (P13612 34-977 limits assumed): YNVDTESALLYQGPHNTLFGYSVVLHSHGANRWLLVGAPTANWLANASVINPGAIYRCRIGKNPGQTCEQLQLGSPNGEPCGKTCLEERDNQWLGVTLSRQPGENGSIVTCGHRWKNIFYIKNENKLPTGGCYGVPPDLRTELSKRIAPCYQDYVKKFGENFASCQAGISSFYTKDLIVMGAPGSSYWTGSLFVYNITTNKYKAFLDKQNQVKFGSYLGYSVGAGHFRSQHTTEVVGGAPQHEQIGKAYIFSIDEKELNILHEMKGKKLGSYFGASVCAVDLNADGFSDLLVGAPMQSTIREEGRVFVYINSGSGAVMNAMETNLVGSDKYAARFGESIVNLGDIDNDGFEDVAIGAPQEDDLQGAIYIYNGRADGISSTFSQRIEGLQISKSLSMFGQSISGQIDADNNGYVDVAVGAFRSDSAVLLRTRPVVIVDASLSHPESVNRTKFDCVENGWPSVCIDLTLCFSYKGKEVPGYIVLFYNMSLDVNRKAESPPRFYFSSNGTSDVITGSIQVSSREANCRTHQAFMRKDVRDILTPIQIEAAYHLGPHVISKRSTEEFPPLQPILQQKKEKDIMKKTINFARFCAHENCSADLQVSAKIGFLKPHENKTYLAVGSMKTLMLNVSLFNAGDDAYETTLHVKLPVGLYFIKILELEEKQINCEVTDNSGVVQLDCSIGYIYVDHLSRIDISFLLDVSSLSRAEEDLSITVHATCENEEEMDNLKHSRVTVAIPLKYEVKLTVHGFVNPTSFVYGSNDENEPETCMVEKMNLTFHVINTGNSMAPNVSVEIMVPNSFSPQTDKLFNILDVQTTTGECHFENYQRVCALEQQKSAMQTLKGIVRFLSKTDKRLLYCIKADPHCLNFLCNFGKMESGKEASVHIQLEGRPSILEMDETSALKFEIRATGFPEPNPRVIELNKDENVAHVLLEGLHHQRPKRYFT
T1 sequence (P26010 20-723 limits assumed): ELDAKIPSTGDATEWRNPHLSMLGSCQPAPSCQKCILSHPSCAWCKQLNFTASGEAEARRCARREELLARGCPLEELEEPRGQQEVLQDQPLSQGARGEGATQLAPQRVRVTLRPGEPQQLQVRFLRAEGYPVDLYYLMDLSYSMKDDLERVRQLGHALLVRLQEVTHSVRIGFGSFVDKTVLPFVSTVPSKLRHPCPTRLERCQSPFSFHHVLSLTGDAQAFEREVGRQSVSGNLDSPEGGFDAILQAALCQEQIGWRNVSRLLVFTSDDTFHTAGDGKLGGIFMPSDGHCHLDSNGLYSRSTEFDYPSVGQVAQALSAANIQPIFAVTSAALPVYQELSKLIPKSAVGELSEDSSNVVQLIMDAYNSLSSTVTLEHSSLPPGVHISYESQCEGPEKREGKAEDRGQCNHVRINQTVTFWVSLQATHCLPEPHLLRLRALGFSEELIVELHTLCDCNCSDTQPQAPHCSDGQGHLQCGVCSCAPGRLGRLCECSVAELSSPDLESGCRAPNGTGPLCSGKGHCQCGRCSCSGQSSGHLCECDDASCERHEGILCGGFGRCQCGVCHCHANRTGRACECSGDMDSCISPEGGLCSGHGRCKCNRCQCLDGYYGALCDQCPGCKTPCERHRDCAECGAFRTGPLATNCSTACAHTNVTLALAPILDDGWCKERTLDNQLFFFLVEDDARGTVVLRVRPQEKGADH
α4β7, sequence (P13612 34-1032): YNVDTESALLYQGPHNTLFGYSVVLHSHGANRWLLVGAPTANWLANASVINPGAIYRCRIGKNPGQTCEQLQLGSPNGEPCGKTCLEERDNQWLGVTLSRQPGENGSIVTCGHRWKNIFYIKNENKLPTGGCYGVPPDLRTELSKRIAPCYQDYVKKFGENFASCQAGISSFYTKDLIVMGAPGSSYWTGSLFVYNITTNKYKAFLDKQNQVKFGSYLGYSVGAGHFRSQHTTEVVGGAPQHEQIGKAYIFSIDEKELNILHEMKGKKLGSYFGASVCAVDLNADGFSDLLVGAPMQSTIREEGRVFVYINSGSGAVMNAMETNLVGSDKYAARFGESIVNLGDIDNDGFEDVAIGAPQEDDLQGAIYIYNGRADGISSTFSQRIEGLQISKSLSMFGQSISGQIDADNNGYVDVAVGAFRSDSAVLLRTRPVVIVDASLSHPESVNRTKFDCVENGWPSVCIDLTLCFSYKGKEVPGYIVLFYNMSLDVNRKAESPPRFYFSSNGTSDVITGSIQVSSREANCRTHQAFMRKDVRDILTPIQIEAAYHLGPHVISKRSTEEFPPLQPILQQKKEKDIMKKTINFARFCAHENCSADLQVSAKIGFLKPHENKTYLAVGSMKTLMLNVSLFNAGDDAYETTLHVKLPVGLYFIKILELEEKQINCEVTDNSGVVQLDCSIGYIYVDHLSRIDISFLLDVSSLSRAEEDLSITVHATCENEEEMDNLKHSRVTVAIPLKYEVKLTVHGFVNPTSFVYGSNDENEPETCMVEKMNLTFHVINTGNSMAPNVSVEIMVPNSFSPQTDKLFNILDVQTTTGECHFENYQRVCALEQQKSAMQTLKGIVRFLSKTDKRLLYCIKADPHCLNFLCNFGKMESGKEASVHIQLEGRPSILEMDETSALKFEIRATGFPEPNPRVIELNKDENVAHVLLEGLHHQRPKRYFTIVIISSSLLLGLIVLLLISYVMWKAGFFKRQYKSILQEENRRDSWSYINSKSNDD
α4β7, sequence (P26010 20-798): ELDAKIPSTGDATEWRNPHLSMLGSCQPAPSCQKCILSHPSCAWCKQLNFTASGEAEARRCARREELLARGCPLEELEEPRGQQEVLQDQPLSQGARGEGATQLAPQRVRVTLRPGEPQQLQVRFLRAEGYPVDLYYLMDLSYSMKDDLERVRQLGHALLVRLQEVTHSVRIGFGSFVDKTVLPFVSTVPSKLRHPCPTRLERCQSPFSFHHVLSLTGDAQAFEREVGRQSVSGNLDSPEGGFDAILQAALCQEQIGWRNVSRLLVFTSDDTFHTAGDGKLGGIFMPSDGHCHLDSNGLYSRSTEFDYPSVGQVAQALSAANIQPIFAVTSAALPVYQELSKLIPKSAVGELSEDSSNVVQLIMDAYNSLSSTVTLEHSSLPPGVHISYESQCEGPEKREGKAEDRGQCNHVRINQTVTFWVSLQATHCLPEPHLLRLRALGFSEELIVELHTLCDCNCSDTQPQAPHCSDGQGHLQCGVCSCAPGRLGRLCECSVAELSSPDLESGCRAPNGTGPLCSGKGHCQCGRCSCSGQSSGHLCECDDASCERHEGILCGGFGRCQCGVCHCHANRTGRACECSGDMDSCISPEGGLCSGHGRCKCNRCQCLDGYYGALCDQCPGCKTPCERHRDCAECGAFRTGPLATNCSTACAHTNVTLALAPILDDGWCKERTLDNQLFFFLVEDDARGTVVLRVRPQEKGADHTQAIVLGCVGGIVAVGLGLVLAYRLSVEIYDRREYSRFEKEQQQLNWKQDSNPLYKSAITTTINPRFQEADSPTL

## CC(=O)N[C@@H]1C(=O)N(C)[C@@H](CCCNC(=N)N)C(=O)N[C@@H](CO)C(=O)N[C@@H](CC(=O)O)C(=O)N[C@@H]([C@@H](C)O)C(=O)N[C@@H](CC(C)C)C(=O)N[C@H](C(=O)N[C@@H](Cc2ccc3ccccc3c2)C(=O)N[C@H](CCC(=O)O)C(=O)N[C@H](CCCCN)C(N)=O)C(C)(C)SSC1(C)C [compound 9] (Ac-[Pen][NMeR]SDTL[Pen][2Nal][dE][dK]-NH2; disulfide 1-7)
Rh integrin α4β7
  IC50: 0.01 to 0.025 µM
α4β7
  IC50: 0.1 to 0.5 µM

## CC(=O)N[C@@H]1C(=O)N(C)[C@@H](CCCNC(=N)N)C(=O)N[C@@H](CO)C(=O)N[C@@H](CC(=O)O)C(=O)N[C@@H]([C@@H](C)O)C(=O)N[C@@H](CC(C)C)C(=O)N[C@H](C(=O)N[C@@H](Cc2cccc3ccccc23)C(=O)N[C@H](CCC(=O)O)C(=O)N(C)[C@H](CCCCN)C(N)=O)C(C)(C)SSC1(C)C [compound 12] (Ac-[Pen][NMeR]SDTL[Pen][1Nal][dE][dNMeK]-NH2; disulfide 1-7)
Rh integrin α4β7
  IC50: 0.025 to 0.05 µM

## CC(=O)N[C@@H]1C(=O)N(C)[C@@H](CCCNC(=N)N)C(=O)N[C@@H](CO)C(=O)N[C@@H](CC(=O)O)C(=O)N[C@@H]([C@@H](C)O)C(=O)N[C@@H](CC(C)C)C(=O)N[C@H](C(=O)N[C@@H](Cc2ccc3ccccc3c2)C(=O)N[C@H](CCC(=O)O)C(=O)N(C)[C@H](CCCCN)C(N)=O)C(C)(C)SSC1(C)C [compound 13] (Ac-[Pen][NMeR]SDTL[Pen][2Nal][dE][dNMeK]-NH2; disulfide 1-7)
Rh integrin α4β7
  IC50: 0.01 to 0.025 µM
α4β7
  IC50: 0.1 to 0.5 µM

## CC(=O)N[C@@H]1C(=O)N(C)[C@@H](CCCNC(=N)N)C(=O)N[C@@H](CO)C(=O)N[C@@H](CC(=O)O)C(=O)N[C@@H]([C@@H](C)O)C(=O)N[C@@H](CC(C)C)C(=O)N[C@H](C(=O)N[C@@H](CCc2ccccc2)C(=O)N[C@H](CCC(=O)O)C(=O)N[C@H](CCCCN)C(N)=O)C(C)(C)SSC1(C)C [compound 14] (Ac-[Pen][NMeR]SDTL[Pen][hPhe][dE][dK]-NH2; disulfide 1-7)
Rh integrin α4β7
  IC50: 0.025 to 0.05 µM

## CC(=O)N[C@@H]1C(=O)N(C)[C@@H](CCCNC(=N)N)C(=O)N[C@@H](CO)C(=O)N[C@@H](CC(=O)O)C(=O)N[C@@H]([C@@H](C)O)C(=O)N[C@@H](CC(C)C)C(=O)N[C@H](C(=O)N[C@@H](Cc2ccc3ccccc3c2)C(=O)N[C@@H](CCC(=O)O)C(=O)N(C)[C@H](CCCCN)C(N)=O)C(C)(C)SSC1(C)C [compound 15] (Ac-[Pen][NMeR]SDTL[Pen][2Nal]E[dNMeK]-NH2; disulfide 1-7)
Rh integrin α4β7
  IC50: < 0.01 µM

## CC(=O)N[C@@H]1C(=O)N(C)[C@@H](CCCNC(=N)N)C(=O)N[C@@H](CO)C(=O)N[C@@H](CC(=O)O)C(=O)N[C@@H]([C@@H](C)O)C(=O)N[C@@H](CC(C)C)C(=O)N[C@H](C(=O)N[C@@H](Cc2ccc(Cl)cc2Cl)C(=O)N[C@@H](CCC(=O)O)C(=O)N[C@H](CCCCN)C(N)=O)C(C)(C)SSC1(C)C [compound 16] (Ac-[Pen][NMeR]SDTL[Pen][Phe(2,4-Cl2)]E[dK]-NH2; disulfide 1-7)
Rh integrin α4β7
  IC50: 0.01 to 0.025 µM

## CC(=O)N[C@@H]1C(=O)N(C)[C@@H](CCCNC(=N)N)C(=O)N[C@@H](CO)C(=O)N[C@@H](CC(=O)O)C(=O)N[C@@H]([C@@H](C)O)C(=O)N[C@@H](CC(C)C)C(=O)N[C@H](C(=O)N[C@@H](Cc2ccc(Cl)c(Cl)c2)C(=O)N[C@@H](CCC(=O)O)C(=O)N[C@H](CCCCN)C(N)=O)C(C)(C)SSC1(C)C [compound 17] (Ac-[Pen][NMeR]SDTL[Pen][Phe(3,4-Cl2)]E[dK]-NH2; disulfide 1-7)
Rh integrin α4β7
  IC50: 0.01 to 0.025 µM

## CC(=O)N[C@@H]1C(=O)N(C)[C@@H](CCCNC(=N)N)C(=O)N[C@@H](CO)C(=O)N[C@@H](CC(=O)O)C(=O)N[C@@H]([C@@H](C)O)C(=O)N[C@@H](CC(C)C)C(=O)N[C@H](C(=O)N[C@@H](CCc2ccccc2)C(=O)N[C@@H](CCC(=O)O)C(=O)N[C@H](CCCCN)C(N)=O)C(C)(C)SSC1(C)C [compound 19] (Ac-[Pen][NMeR]SDTL[Pen][hPhe]E[dK]-NH2; disulfide 1-7)
Rh integrin α4β7
  IC50: 0.01 to 0.025 µM

## CC(=O)N[C@@H]1C(=O)N(C)[C@@H](CCCNC(=N)N)C(=O)N[C@@H](CO)C(=O)N[C@@H](CC(=O)O)C(=O)N[C@@H]([C@@H](C)O)C(=O)N[C@@H](CC(C)C)C(=O)N[C@H](C(=O)N[C@@H](CCc2ccccc2)C(=O)N[C@H](CCC(=O)O)C(=O)N[C@H](CCCCNC(=O)COCC(=O)NCCCC[C@@H](NC(=O)[C@@H](CCC(=O)O)NC(=O)[C@H](CCc2ccccc2)NC(=O)[C@H]2NC(=O)[C@H](CC(C)C)NC(=O)[C@H]([C@@H](C)O)NC(=O)[C@H](CC(=O)O)NC(=O)[C@H](CO)NC(=O)[C@H](CCCNC(=N)N)N(C)C(=O)[C@@H](NC(C)=O)C(C)(C)SSC2(C)C)C(N)=O)C(N)=O)C(C)(C)SSC1(C)C [compound 40] (I: Ac-[Pen][NMeR]SDTL[Pen][hPhe][dE][dK]-NH2 / II: Ac-[Pen][NMeR]SDTL[Pen][hPhe][dE][dK]-NH2; disulfide I:1-I:7, II:1-II:7; linker I:10-II:10 via Diglycolyl)
Rh integrin α4β7
  IC50: < 0.01 µM
α4β7
  IC50: 0.1 to 0.5 µM

## COC(=O)C[C@@H]1NC(=O)[C@H](CO)NC(=O)[C@H](CCCNC(=N)N)N(C)C(=O)[C@@H](NC(C)=O)C(C)(C)SSC(C)(C)[C@@H](C(=O)N[C@@H](Cc2c[nH]c3ccccc23)C(=O)N[C@@H](CCC(=O)O)C(=O)N[C@H](CCCCNC(=O)COCC(=O)NCCCC[C@@H](NC(=O)[C@H](CCC(=O)O)NC(=O)[C@H](Cc2c[nH]c3ccccc23)NC(=O)[C@H]2NC(=O)[C@H](CC(C)C)NC(=O)[C@H]([C@@H](C)O)NC(=O)[C@H](CC(=O)OC)NC(=O)[C@H](CO)NC(=O)[C@H](CCCNC(=N)N)N(C)C(=O)[C@@H](NC(C)=O)C(C)(C)SSC2(C)C)C(N)=O)C(N)=O)NC(=O)[C@H](CC(C)C)NC(=O)[C@H]([C@@H](C)O)NC1=O [compound 73] (I: Ac-[Pen][NMeR]SD(OMe)TL[Pen]WE[dK]-NH2 / II: Ac-[Pen][NMeR]SD(OMe)TL[Pen]WE[dK]-NH2; disulfide I:1-I:7, II:1-II:7; linker I:10-II:10 via Diglycolyl)
Rh integrin α4β7
  IC50: < 0.01 µM
α4β7
  IC50: < 0.01 µM

## CC(=O)N[C@@H]1C(=O)N(C)[C@@H](CCCNC(=N)N)C(=O)N[C@@H](CO)C(=O)N[C@@H](CC(=O)O)C(=O)N[C@@H]([C@@H](C)O)C(=O)N[C@@H](CC(C)C)C(=O)N[C@H](C(=O)N[C@@H](Cc2ccc3ccccc3c2)C(=O)N[C@H](CCCCN)C(N)=O)C(C)(C)SSC1(C)C [compound 88] (Ac-[Pen][NMeR]SDTL[Pen][2Nal][dK]-NH2; disulfide 1-7)
Rh integrin α4β7
  IC50: 0.01 to 0.025 µM

## CC(=O)N[C@@H]1C(=O)N(C)[C@@H](CCCNC(=N)N)C(=O)N[C@@H](CO)C(=O)N[C@@H](CC(=O)O)C(=O)N[C@@H]([C@@H](C)O)C(=O)N[C@@H](CC(C)C)C(=O)N[C@H](C(=O)N2Cc3ccccc3C[C@H]2C(=O)N[C@H](CCC(=O)O)C(=O)N[C@H](CCCCN)C(N)=O)CSSC1(C)C [compound 89] (Ac-[Pen][NMeR]SDTLC[Tic][dE][dK]-NH2; disulfide 1-7)
Rh integrin α4β7
  IC50: 0.025 to 0.05 µM

## CC(=O)N[C@@H]1C(=O)N(C)[C@@H](CCCNC(=N)N)C(=O)N[C@@H](CO)C(=O)N[C@@H](CC(=O)O)C(=O)N[C@@H]([C@@H](C)O)C(=O)N[C@@H](CC(C)C)C(=O)N[C@H](C(=O)N[C@@H](Cc2ccc3ccccc3c2)C(=O)N[C@@H](CCC(=O)O)C(=O)N(C)[C@@H](CCCCNC(=O)COCC(=O)NCCCC[C@@H](C(N)=O)N(C)C(=O)[C@H](CCC(=O)O)NC(=O)[C@H](Cc2ccc3ccccc3c2)NC(=O)[C@H]2NC(=O)[C@H](CC(C)C)NC(=O)[C@H]([C@@H](C)O)NC(=O)[C@H](CC(=O)O)NC(=O)[C@H](CO)NC(=O)[C@H](CCCNC(=N)N)N(C)C(=O)[C@@H](NC(C)=O)C(C)(C)SSC2(C)C)C(N)=O)C(C)(C)SSC1(C)C [compound 138] (I: Ac-[Pen][NMeR]SDTL[Pen][2Nal]E[NMeK]-NH2 / II: Ac-[Pen][NMeR]SDTL[Pen][2Nal]E[NMeK]-NH2; disulfide I:1-I:7, II:1-II:7; linker I:10-II:10 via Diglycolyl)
Rh integrin α4β7
  IC50: 0.01 to 0.025 µM
α4β7
  IC50: 0.01 to 0.025 µM
